pIC50: −log10 of the molar value. Like-named read-outs stand apart in the source and are kept apart here.
Columns and labels:
Type in all cases: cell-based
Thyroid Receptor β = molecular target: T1, Thyroid Receptor β (Homo sapiens, UniProt P10828); experiment: Target selectivity counterscreen, Thyroid Receptor β reporter assay; conditions: receptor agonist at ~EC80
T1 construct: host or cells: engineered reporter cells of the kit
T1 sequence (P10828 1-461): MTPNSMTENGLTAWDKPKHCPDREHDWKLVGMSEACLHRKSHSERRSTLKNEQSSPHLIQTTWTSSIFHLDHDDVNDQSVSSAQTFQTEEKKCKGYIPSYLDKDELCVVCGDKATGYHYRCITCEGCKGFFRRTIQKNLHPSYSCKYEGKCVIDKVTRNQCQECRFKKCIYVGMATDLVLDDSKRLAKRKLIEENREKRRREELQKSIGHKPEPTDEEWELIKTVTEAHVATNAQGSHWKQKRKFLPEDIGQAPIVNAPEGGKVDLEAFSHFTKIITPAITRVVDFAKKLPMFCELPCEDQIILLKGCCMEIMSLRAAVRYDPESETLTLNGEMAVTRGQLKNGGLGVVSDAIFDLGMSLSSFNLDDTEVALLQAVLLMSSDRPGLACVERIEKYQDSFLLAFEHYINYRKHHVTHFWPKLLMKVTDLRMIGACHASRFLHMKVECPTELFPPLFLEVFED
Protocol: (§1) Target Selectivity Assays
(§2) To determine species selectivity, a Mouse PPARα Reporter Assay System was used (Indigo Biosciences, Cat. #M00111). Activity of test compounds to antagonize or agonize other isoforms of human PPAR, for example β/δ and γ, were assessed using the corresponding kits from Indigo Biosciences (Cat. #IB00121 and #IB00101, respectively). In addition to PPAR activity, compounds were also screened for activity against other nuclear hormone receptors including Estrogen Receptor β, Glucocorticoid Receptor and Thyroid Receptor β using commercially available kits (Indigo Biosciences, Cat. #IB00411, IB00201 and IB01101, respectively). Each assay system from Indigo Biosciences uses technology analogous to the human PPARα kit, with the variance being that the cells used for each assay were engineered to over-express the receptor of interest. In addition, the appropriate receptor agonist (included with each kit) was used at ˜EC80 for assays in which antagonist potency was being assessed.

Estrogen Receptor β = molecular target: T2, Estrogen Receptor β (Homo sapiens, UniProt Q92731); experiment: Target selectivity counterscreen, Estrogen Receptor β reporter assay; conditions: receptor agonist at ~EC80
T2 construct: host or cells: engineered reporter cells of the kit
T2 sequence (Q92731 whole entry): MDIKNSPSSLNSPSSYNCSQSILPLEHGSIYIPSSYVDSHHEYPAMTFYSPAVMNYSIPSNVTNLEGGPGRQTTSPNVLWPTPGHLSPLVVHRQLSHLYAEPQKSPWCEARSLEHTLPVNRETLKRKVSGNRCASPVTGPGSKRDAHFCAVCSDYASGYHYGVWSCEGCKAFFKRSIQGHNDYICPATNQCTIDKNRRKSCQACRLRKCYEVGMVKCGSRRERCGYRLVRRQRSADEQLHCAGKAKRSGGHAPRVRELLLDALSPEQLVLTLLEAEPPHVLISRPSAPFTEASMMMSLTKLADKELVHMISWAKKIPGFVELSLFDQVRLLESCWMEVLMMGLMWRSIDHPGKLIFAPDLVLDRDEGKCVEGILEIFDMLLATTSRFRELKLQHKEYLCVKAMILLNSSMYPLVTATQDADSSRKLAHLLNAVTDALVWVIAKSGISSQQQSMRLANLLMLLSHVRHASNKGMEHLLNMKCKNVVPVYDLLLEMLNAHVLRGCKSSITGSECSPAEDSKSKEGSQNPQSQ
Protocol: as §1, §2

PPAR beta/delta = molecular target: T3, PPAR beta/delta (Homo sapiens, UniProt Q03181); experiment: Target selectivity counterscreen, PPAR β/δ reporter assay; conditions: receptor agonist at ~EC80
T3 construct: host or cells: engineered reporter cells of the kit
T3 sequence (Q03181 1-441): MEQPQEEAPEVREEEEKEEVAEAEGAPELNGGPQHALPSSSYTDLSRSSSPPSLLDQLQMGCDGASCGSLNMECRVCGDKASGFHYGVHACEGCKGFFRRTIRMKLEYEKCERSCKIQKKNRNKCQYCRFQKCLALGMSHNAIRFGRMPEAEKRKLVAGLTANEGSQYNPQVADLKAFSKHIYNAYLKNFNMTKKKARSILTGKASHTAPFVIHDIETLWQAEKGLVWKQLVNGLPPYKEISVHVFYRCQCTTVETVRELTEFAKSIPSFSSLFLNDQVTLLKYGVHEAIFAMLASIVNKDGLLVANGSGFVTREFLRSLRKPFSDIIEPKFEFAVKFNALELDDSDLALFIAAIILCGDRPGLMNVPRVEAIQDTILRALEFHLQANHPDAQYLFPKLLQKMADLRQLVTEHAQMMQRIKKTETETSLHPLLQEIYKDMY
Protocol: as §1, §2

Glucocorticoid Receptor = molecular target: T4, Glucocorticoid Receptor (Homo sapiens, UniProt P04150); experiment: Target selectivity counterscreen, Glucocorticoid Receptor reporter assay; conditions: receptor agonist at ~EC80
T4 construct: host or cells: engineered reporter cells of the kit
T4 sequence (P04150 1-777): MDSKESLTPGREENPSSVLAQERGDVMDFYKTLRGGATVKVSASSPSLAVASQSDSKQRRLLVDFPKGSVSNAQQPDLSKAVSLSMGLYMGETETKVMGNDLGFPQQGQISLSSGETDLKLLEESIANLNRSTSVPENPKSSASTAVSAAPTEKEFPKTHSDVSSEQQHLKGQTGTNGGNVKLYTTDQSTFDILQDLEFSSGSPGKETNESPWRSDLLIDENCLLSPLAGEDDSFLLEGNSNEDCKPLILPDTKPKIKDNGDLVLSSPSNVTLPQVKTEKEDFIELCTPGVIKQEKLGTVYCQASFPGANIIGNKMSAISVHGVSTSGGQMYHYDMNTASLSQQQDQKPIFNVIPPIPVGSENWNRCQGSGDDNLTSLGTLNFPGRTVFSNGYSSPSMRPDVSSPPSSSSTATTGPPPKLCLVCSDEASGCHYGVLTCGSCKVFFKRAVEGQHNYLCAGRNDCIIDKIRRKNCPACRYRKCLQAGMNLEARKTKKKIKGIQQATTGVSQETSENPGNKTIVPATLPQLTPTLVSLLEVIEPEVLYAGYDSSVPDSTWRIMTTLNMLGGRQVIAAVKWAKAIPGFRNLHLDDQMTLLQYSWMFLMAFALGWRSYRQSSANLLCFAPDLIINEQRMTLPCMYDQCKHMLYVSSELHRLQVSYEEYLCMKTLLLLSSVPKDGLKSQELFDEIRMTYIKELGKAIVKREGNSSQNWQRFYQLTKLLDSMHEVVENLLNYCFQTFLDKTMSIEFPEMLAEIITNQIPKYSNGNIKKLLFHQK
Protocol: as §1, §2

Human PPARα = molecular target: T5, Human PPARα (Homo sapiens, UniProt Q07869); experiment: Human PPARα Reporter Assay (luciferase)
T5 construct: host or cells: proprietary non-human mammalian cells
T5 sequence (Q07869 1-468): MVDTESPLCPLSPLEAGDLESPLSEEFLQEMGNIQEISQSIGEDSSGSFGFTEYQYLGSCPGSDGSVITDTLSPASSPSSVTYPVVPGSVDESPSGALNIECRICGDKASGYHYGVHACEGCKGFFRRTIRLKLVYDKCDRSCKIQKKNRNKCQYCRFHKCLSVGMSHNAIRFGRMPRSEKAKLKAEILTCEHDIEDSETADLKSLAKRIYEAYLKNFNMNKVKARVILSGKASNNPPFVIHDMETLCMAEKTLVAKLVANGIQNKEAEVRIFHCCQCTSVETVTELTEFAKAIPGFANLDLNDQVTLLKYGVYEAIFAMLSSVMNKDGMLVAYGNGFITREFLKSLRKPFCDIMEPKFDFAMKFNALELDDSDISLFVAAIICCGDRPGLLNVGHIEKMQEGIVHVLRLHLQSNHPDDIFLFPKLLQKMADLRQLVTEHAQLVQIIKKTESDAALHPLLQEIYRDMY
In short: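 Non-human mammalian cells constitutively expressing human PPARα with a PPARα-responsive luciferase reporter were dosed with compounds right after plating. After overnight incubation, media removed and detection reagent added; luminescence taken as proportional to PPARα activation, agonist or antagonist mode.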

PPAR gamma = molecular target: T6, PPAR gamma (Homo sapiens, UniProt P37231); experiment: Target selectivity counterscreen, PPAR γ reporter assay; conditions: receptor agonist at ~EC80
T6 construct: host or cells: engineered reporter cells of the kit
T6 sequence (P37231 1-505): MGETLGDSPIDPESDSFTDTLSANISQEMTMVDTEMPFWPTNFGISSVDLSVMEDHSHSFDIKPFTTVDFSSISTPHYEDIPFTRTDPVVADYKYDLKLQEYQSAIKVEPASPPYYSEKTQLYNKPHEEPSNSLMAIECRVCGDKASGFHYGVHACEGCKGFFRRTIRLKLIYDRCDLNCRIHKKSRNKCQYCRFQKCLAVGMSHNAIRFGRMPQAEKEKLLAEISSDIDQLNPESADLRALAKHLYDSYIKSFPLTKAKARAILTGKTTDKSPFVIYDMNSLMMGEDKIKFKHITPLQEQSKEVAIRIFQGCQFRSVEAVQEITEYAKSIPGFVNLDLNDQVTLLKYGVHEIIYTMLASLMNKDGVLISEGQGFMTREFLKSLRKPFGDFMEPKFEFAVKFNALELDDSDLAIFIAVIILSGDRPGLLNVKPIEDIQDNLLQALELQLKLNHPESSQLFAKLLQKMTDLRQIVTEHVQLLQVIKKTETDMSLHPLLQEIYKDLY
Protocol: as §1, §2

CCn1c(CCCc2ccc(-c3cccc(CC(=O)O)c3)cc2)nn(Cc2ccccc2)c1=O [Example 23, 2-(4′-(3-(1-Benzyl-4-ethyl-5-oxo-4,5-dihydro-1H-1,2,4-triazol-3-yl)propyl)-[1,1′-biphenyl]-3-yl)acetic acid]
pIC50 (Thyroid Receptor β): < 5.00 | pIC50 (Estrogen Receptor β): 4.76 | pIC50 (PPAR beta/delta): < 4.30 | pIC50 (Glucocorticoid Receptor): < 5.00 | pIC50 (Human PPARα; counterscreen table, antagonist potency, read-out: PPAR alpha IC50): 7.60 | pIC50 (Human PPARα; human PPARα reporter cells, overnight incubation, antagonism, read-out: Luciferase IC50): 5.14 | pIC50 (PPAR gamma): < 4.30
